Assay: xn = mol fraction of the nth substance listed

C[N+](C)(C)CC(=O)[O-] + CC(O)C(=O)O
viscosity [mPa·s]
Settings | 293.15 K | 298.15 K | 303.15 K | 308.15 K | 313.15 K | 318.15 K | 323.15 K
100 kPa, x2 = 0.667 | – | 1266 | 818.6 | 544.6 | 374.6 | 260.5 | 190.2
100 kPa, x2 = 0.833 | 386.6 | 245.3 | 167.7 | 120.4 | 86.1 | 65.5 | 50.6
101 kPa, x1 = 0.5 | – | 17780 | – | – | – | 6043 | –

Brc1ccccc1 + CCC(C)=O
303.15 K, 101 kPa
Settings | viscosity [mPa·s]
x2 = 0.1487 | 0.899
x2 = 0.2073 | 0.858
x2 = 0.3888 | 0.74
x2 = 0.5263 | 0.656
x2 = 0.7046 | 0.556
x2 = 0.8307 | 0.486

CC(C)N + CCC(C)=O
298.15 K, 101 kPa
Settings | viscosity [mPa·s]
x2 = 0.0835 | 0.288
x2 = 0.1701 | 0.3
x2 = 0.26 | 0.314
x2 = 0.3534 | 0.33
x2 = 0.4505 | 0.345
x2 = 0.5515 | 0.358
x2 = 0.6567 | 0.37
x2 = 0.7663 | 0.371
x2 = 0.8806 | 0.372

C1COCCO1 + CCC(C)O
298.15 K, 101 kPa
Settings | viscosity [mPa·s]
x1 = 0.0413 | 2.47
x1 = 0.1256 | 1.88
x1 = 0.236 | 1.474
x1 = 0.3042 | 1.324
x1 = 0.4175 | 1.173
x1 = 0.5 | 1.133
x1 = 0.5207 | 1.092
x1 = 0.5916 | 1.061
x1 = 0.7413 | 1.046
x1 = 0.8431 | 1.071
x1 = 0.9423 | 1.119

CCCC#N + CCC(C)O
viscosity [mPa·s], 101.33 kPa
Settings | x2 = 0.1016 | x2 = 0.1946 | x2 = 0.2965 | x2 = 0.3938 | x2 = 0.4949 | x2 = 0.5951 | x2 = 0.6966 | x2 = 0.7945 | x2 = 0.8999
298.15 K | 0.572 | 0.605 | 0.652 | 0.717 | 0.811 | 0.945 | 1.141 | 1.435 | 1.982
308.15 K | 0.508 | 0.532 | 0.567 | 0.616 | 0.685 | 0.782 | 0.921 | 1.123 | 1.478
318.15 K | 0.454 | 0.472 | 0.499 | 0.536 | 0.59 | 0.658 | 0.758 | 0.898 | 1.135

C1COCCO1 + CCCCCC
101 kPa
Settings | viscosity [mPa·s]
303.15 K, x1 = 0.111 | 0.297
303.15 K, x1 = 0.1961 | 0.317
303.15 K, x1 = 0.3001 | 0.348
303.15 K, x1 = 0.4033 | 0.389
303.15 K, x1 = 0.4962 | 0.436
303.15 K, x1 = 0.5966 | 0.498
303.15 K, x1 = 0.7169 | 0.601
303.15 K, x1 = 0.8008 | 0.7
303.15 K, x1 = 0.8988 | 0.854
308.15 K, x1 = 0.1153 | 0.301
308.15 K, x1 = 0.2223 | 0.338
308.15 K, x1 = 0.3421 | 0.388
308.15 K, x1 = 0.4004 | 0.415
308.15 K, x1 = 0.5204 | 0.481
308.15 K, x1 = 0.7211 | 0.644
308.15 K, x1 = 0.8214 | 0.75
308.15 K, x1 = 0.9211 | 0.879
313.15 K, x1 = 0.1153 | 0.287
313.15 K, x1 = 0.2223 | 0.321
313.15 K, x1 = 0.3421 | 0.367
313.15 K, x1 = 0.4004 | 0.391
313.15 K, x1 = 0.5204 | 0.454
313.15 K, x1 = 0.6232 | 0.521
313.15 K, x1 = 0.7211 | 0.603
313.15 K, x1 = 0.8214 | 0.704
313.15 K, x1 = 0.9211 | 0.824
318.15 K, x1 = 0.1153 | 0.275
318.15 K, x1 = 0.2223 | 0.307
318.15 K, x1 = 0.3421 | 0.349
318.15 K, x1 = 0.4004 | 0.373
318.15 K, x1 = 0.5204 | 0.431
318.15 K, x1 = 0.6232 | 0.494
318.15 K, x1 = 0.7211 | 0.568
318.15 K, x1 = 0.8214 | 0.659
318.15 K, x1 = 0.9211 | 0.769

From the CheMixHub viscosity set
